Laboratory results published in ChEMBL document CHEMBL1157707, “Lead optimization of N-3-substituted 7-morpholinotriazolopyrimidines as dual phosphoinositide 3-kinase/mammalian target of rapamycin inhibitors: discovery of PKI-402” (J Med Chem, 2010).
Values after ≈ are worked out from the molar mass of the structure shown. Active and inactive are the calls of the source. No cut-off for these calls is given here.

Assays:
[1] = target: Serine/threonine-protein kinase mTOR (Homo sapiens, UniProt P42345); experiment: Inhibition of mTOR by DELFIA
[2] = Solubility at pH 7.4; assay type: physicochemical; details: buffer
MDA-MB-361 [3] = experiment: cells; details: Homo sapiens, MDA-MB-361, 72 h
PC-3 = experiment: cells; details: Homo sapiens, PC-3, 72 h
in vitro = details: rat
[4] = target: Phosphatidylinositol 4,5-bisphosphate 3-kinase catalytic subunit gamma isoform (Homo sapiens, UniProt P48736); experiment: Inhibition of human PI3Kgamma by fluorescence polarization format assay
Phosphatidylinositol 4,5-bisphosphate 3-kinase catalytic subunit gamma isoform, sequence (P48736 whole entry, canonical isoform): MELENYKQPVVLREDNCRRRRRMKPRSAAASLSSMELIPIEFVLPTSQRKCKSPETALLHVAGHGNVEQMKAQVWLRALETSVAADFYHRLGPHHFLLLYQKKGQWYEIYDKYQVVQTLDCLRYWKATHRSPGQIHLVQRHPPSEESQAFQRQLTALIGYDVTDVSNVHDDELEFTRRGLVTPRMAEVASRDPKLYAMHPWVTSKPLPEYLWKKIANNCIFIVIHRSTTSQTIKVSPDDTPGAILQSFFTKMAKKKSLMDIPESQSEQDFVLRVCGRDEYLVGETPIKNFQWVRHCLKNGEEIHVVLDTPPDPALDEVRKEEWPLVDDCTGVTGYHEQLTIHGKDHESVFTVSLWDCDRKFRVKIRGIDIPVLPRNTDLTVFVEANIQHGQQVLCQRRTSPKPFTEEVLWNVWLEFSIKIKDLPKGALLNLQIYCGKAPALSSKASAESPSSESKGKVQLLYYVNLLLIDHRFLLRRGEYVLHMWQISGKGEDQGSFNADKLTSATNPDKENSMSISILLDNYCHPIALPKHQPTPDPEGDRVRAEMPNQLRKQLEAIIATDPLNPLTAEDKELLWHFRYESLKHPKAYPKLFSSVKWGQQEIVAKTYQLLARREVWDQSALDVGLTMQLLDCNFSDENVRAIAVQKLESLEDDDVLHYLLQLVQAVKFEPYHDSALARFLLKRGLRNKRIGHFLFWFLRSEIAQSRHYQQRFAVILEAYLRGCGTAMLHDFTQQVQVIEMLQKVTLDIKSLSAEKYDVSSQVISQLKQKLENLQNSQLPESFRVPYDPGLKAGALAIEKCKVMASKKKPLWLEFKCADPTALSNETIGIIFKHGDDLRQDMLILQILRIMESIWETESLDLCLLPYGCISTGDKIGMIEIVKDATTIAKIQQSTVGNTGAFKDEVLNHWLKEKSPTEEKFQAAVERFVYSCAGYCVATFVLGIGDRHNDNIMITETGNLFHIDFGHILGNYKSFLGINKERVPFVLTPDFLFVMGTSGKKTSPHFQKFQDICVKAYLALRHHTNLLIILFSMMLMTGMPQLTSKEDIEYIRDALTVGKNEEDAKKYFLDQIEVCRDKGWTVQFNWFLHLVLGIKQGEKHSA

[5] = Solubility at pH 3; assay type: physicochemical; details: buffer
[6] = Metabolic stability in human liver microsomes assessed as half life; assay type: ADME, Microsome
[7] = Metabolic stability in mouse liver microsomes assessed as half life; assay type: ADME, Microsome
Mus musculus [8] = experiment: Antitumor activity against human MDA-MB-361 cells implanted in mouse assessed as suppression of Akt T308 phosphorylation at 50 mg/kg, iv; assay type: functional, organism-based; set-up: dose 50 mg/kg
Mus musculus [9] = experiment: Antitumor activity against human MDA-MB-361 cells implanted in mouse assessed as suppression of Akt S473 phosphorylation at 50 mg/kg, iv; assay type: functional, organism-based; set-up: dose 50 mg/kg
Mus musculus [10] = experiment: Antitumor activity against human MDA-MB-361 cells implanted in mouse assessed as suppression of P70S6K phosphorylation at 50 mg/kg, iv; assay type: functional, organism-based; set-up: dose 50 mg/kg
Mus musculus [11] = experiment: Antitumor activity against human MDA-MB-361 cells implanted in mouse assessed as suppression of S6 phosphorylation at 50 mg/kg, iv; assay type: functional, organism-based; set-up: dose 50 mg/kg
Mus musculus [12] = experiment: Plasma concentration in human MDA-MB-361 cells implanted mouse at 50 mg/kg, iv; assay type: ADME, organism-based; set-up: dose 50 mg/kg, route intravenous; details: in vivo
[13] = Drug level in human MDA-MB-361 cells implanted mouse tumor at 50 mg/kg, iv; assay type: ADME, organism-based, Neoplasm; set-up: dose 50 mg/kg, route intravenous; details: in vivo
cells = details: Homo sapiens, MDA-MB-361, 4 h
[14] = target: Phosphatidylinositol 4,5-bisphosphate 3-kinase catalytic subunit alpha isoform (Homo sapiens, UniProt P42336)
Phosphatidylinositol 4,5-bisphosphate 3-kinase catalytic subunit alpha isoform, sequence (P42336 whole entry, canonical isoform): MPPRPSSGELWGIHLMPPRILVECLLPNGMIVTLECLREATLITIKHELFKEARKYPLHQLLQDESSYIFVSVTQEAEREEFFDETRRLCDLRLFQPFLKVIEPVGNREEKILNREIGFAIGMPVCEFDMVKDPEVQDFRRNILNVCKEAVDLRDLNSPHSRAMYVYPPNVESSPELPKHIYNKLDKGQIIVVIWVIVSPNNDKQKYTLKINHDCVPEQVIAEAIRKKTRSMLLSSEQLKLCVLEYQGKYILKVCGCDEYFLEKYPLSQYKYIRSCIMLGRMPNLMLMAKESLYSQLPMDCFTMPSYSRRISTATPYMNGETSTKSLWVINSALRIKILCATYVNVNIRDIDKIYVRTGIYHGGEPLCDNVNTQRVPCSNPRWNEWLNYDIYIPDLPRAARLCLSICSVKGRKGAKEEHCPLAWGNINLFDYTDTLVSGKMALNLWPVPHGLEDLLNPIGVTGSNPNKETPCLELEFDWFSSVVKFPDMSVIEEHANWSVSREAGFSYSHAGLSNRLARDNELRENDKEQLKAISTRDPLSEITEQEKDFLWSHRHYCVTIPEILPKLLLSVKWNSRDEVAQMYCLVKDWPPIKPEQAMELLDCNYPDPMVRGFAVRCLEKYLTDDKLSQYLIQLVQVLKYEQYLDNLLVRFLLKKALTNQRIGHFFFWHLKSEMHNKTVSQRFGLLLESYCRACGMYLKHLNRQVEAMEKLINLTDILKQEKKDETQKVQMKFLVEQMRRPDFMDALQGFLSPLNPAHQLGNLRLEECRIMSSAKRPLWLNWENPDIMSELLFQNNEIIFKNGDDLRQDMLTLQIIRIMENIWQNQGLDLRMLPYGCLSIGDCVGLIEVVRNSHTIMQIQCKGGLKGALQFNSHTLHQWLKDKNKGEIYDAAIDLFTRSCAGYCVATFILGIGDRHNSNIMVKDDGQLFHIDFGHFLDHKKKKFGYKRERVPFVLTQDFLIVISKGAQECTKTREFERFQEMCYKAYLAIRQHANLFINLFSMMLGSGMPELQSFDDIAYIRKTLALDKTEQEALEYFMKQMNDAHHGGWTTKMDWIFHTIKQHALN

Mus musculus [15] = experiment: Antitumor activity against human MDA-MB-361 cells implanted in mouse assessed as suppression of S6 phosphorylation at 50 mg/kg, iv after 8 hrs; assay type: functional, organism-based; set-up: dose 50 mg/kg
Mus musculus [16] = experiment: Antitumor activity against human MDA-MB-361 cells implanted in mouse assessed as […] of cleavage of PARP at 50 mg/kg, iv after 8 hrs; assay type: functional, organism-based; set-up: dose 50 mg/kg
Mus musculus [17] = experiment: Antitumor activity against human MDA-MB-361 cells implanted in mouse assessed as suppression of Akt T308 phosphorylation at 100 mg/kg, iv after 8 hrs; assay type: functional, organism-based; set-up: dose 100 mg/kg
Mus musculus [18] = experiment: Antitumor activity against human MDA-MB-361 cells implanted in mouse assessed as suppression of Akt S473 phosphorylation at 100 mg/kg, iv after 8 hrs; assay type: functional, organism-based; set-up: dose 100 mg/kg
Mus musculus [19] = experiment: Antitumor activity against human MDA-MB-361 cells implanted in mouse assessed as suppression of P70S6K phosphorylation at 100 mg/kg, iv after 8 hrs; assay type: functional, organism-based; set-up: dose 100 mg/kg
Mus musculus [20] = experiment: Antitumor activity against human MDA-MB-361 cells implanted in mouse assessed as suppression of S6 phosphorylation at 100 mg/kg, iv after 8 hrs; assay type: functional, organism-based; set-up: dose 100 mg/kg
Mus musculus [21] = experiment: Antitumor activity against human MDA-MB-361 cells implanted in mouse assessed as […] of cleavage of PARP at 100 mg/kg, iv after 8 hrs; assay type: functional, organism-based; set-up: dose 100 mg/kg
[22] = target: Phosphatidylinositol 4,5-bisphosphate 3-kinase catalytic subunit beta isoform (Homo sapiens, UniProt P42338); experiment: Inhibition of PI3Kbeta
Phosphatidylinositol 4,5-bisphosphate 3-kinase catalytic subunit beta isoform, sequence (P42338 whole entry, canonical isoform): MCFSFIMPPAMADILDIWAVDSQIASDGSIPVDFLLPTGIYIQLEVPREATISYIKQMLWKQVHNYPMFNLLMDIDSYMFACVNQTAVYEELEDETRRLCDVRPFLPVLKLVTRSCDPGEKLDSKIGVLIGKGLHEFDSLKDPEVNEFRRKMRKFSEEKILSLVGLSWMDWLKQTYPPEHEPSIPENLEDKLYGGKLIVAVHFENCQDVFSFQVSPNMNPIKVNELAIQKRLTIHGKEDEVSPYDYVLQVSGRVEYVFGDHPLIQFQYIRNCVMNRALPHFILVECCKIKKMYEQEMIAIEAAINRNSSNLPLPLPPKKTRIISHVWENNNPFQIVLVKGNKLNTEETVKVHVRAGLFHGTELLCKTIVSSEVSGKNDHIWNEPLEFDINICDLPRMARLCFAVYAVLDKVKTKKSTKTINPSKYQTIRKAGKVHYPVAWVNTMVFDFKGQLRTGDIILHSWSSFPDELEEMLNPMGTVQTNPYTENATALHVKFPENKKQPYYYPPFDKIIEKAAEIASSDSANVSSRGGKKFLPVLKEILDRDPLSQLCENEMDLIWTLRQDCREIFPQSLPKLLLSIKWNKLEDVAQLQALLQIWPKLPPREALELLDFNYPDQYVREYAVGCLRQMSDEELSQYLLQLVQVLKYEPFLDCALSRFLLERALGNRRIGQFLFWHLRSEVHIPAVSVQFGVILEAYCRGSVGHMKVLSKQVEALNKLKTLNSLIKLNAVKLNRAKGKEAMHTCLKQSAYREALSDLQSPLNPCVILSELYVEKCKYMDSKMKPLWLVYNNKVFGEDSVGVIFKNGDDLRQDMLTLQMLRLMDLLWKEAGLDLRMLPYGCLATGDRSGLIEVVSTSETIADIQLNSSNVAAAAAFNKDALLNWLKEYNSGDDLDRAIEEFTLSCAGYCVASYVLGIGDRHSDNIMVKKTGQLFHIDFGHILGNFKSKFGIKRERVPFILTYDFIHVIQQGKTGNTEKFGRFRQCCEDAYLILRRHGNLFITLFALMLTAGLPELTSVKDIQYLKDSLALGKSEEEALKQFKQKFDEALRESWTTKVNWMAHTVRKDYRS

Mus musculus [23] = experiment: Antitumor activity against human MDA-MB-361 cells implanted in mouse assessed as suppression of Akt T308 phosphorylation at 50 mg/kg, iv after 8 hrs; assay type: functional, organism-based; set-up: dose 50 mg/kg
Mus musculus [24] = experiment: Antitumor activity against human MDA-MB-361 cells implanted in mouse assessed as suppression of Akt S473 phosphorylation at 50 mg/kg, iv after 8 hrs; assay type: functional, organism-based; set-up: dose 50 mg/kg
Mus musculus [25] = experiment: Antitumor activity against human MDA-MB-361 cells implanted in mouse assessed as suppression of P70S6K phosphorylation at 50 mg/kg, iv after 8 hrs; assay type: functional, organism-based; set-up: dose 50 mg/kg
[26] = Plasma concentration in human MDA-MB-361 cells implanted mouse at 50 mg/kg, iv after 8 hrs; assay type: ADME, organism-based; set-up: dose 50 mg/kg, route intravenous
[27] = Drug level in human MDA-MB-361 cells implanted mouse tumor at 50 mg/kg, iv after 8 hrs; assay type: ADME, organism-based, Neoplasm; set-up: dose 50 mg/kg, route intravenous; details: read-out: Drug uptake
MDA-MB-361 [28] = experiment: Antitumor activity against human MDA-MB-361 cells implanted in mouse assessed as inhibition of regrowth at until day 70 at 100 mg/kg, iv once daily for 5 days; assay type: functional, organism-based; set-up: dose 100 mg/kg
MDA-MB-361 [29] = experiment: Antitumor activity against human MDA-MB-361 cells implanted in mouse assessed as inhibition of regrowth at until day 16 and 20 at 25 mg/kg, iv once daily for 5 days; assay type: functional, organism-based; set-up: dose 25 mg/kg
MDA-MB-361 [30] = experiment: Antitumor activity against human MDA-MB-361 cells implanted in mouse assessed as inhibition of regrowth at until day 16 and 20 at 50 mg/kg, iv once daily for 5 days; assay type: functional, organism-based; set-up: dose 50 mg/kg
Mus musculus [31] = species: Mus musculus; experiment: Toxicity in mouse assessed as weight loss; assay type: organism-based; details: in vivo
[32] = Inhibition of Akt T308 phosphorylation in human MDA-MB-361 cells by Western blotting; assay type: cell-based

With `Cn1nnc2c(N3CCOCC3)nc(-c3ccc(NC(=O)Nc4cccnc4)cc3)nc21` the IC50 [1] was 2.95 nM, the solubility [2] was 1 µg/mL (≈ 2.32 µM) and the IC50 (MDA-MB-361 [3]) was 198 nM. For the same molecule, the IC50 (PC-3) was 281 nM and the half-life (in vitro; microsomes) was 12 min.
Molecule `CCn1nnc2c(N3CCOCC3)nc(-c3ccc(NC(=O)Nc4ccc(C(=O)NCCN(C)C)cc4)cc3)nc21` has an IC50 [4] of 12 nM, an IC50 [1] of 0.5 nM and a solubility [2] greater than 100 µg/mL. The solubility [5] was greater than 100 µg/mL, the half-life [6] was greater than 30 min and the half-life [7] was 28 min. For the same molecule, the Activity (Mus musculus [8]) was “Active”, the Activity (Mus musculus [9]) was “Active” and the Activity (Mus musculus [10]) was “Active”. For the same molecule, the Activity (Mus musculus [11]) was “Active”, the Cp (Mus musculus [12]) was 1229 ng/mL and the Drug uptake [13] was 2130 ng/mL. For the same molecule, the IC50 (MDA-MB-361 [3]) was 13 nM, the IC50 (PC-3) was 52 nM and the IC50 (cells) was 16 nM. For the same molecule, the half-life (in vitro; microsomes) was 29 min.
With `CC(C)n1nnc2c(N3CCOCC3)nc(-c3ccc(NC(=O)Nc4ccncc4)cc3)nc21` the IC50 [1] was 0.51 nM, the IC50 (MDA-MB-361 [3]) was 54 nM and the IC50 (PC-3) was 67 nM. The half-life (in vitro; liver microsomes) was greater than 30 min.
For `CCn1nnc2c(N3CCOCC3)nc(-c3ccc(NC(=O)Nc4cccs4)cc3)nc21`, the IC50 [1] was 3 nM, the solubility [2] was 1 µg/mL (≈ 2.22 µM) and the IC50 (MDA-MB-361 [3]) was 81 nM. For the same molecule, the IC50 (PC-3) was 133 nM and the half-life (in vitro; liver microsomes) was 10 min.
Work on `CC(C)n1nnc2c(N3CCOCC3)nc(-c3ccc(NC(=O)Nc4ccc(C(N)=O)cc4)cc3)nc21` yielded an IC50 [1] of 0.31 nM, an IC50 [14] of 3.6 nM and an IC50 (MDA-MB-361 [3]) of 38 nM. It also gave an IC50 (PC-3) of 57 nM and a half-life (in vitro; liver microsomes) of 9 min.
Molecule `CCn1nnc2c(N3CCOCC3)nc(-c3ccc(NC(=O)Nc4ccnc(C)c4)cc3)nc21` has an IC50 [1] of 21 nM, a solubility [2] of 3 µg/mL (≈ 6.53 µM) and an IC50 (MDA-MB-361 [3]) of 196 nM. It also gave an IC50 (PC-3) of 252 nM and a half-life (in vitro; liver microsomes) of 11 min.
In the case of `CCn1nnc2c(N3CCOCC3)nc(-c3ccc(NC(=O)Nc4ccc(C(=O)N5CCN(C)CC5)cc4)cc3)nc21`, the Activity (Mus musculus [15]) is reported as “Active”, the Activity (Mus musculus [16]) is reported as “Active” and the Activity (Mus musculus [17]) is reported as “Active”. The Activity (Mus musculus [18]) was “Active”, the Activity (Mus musculus [19]) was “Active” and the Activity (Mus musculus [20]) was “Active”. For the same molecule, the Activity (Mus musculus [21]) was “Active”, the IC50 [1] was 1.7 nM and the IC50 [22] was 7 nM. For the same molecule, the solubility [5] was 100 µg/mL (≈ 175 µM), the half-life [6] was greater than 30 min and the half-life [7] was greater than 30 min. For the same molecule, the Activity (Mus musculus [23]) was “Active”, the Activity (Mus musculus [24]) was “Active” and the Activity (Mus musculus [25]) was “Active”. The concentration at 8 h [26] was 525 ng/mL, the concentration at 8 h [27] was 2220 ng/mL and the Activity (MDA-MB-361 [28]) was “Active”. The Activity (MDA-MB-361 [29]) was “inactive”, the Activity (MDA-MB-361 [30]) was “inactive” and the Activity (Mus musculus [31]) was “Non-toxic”. The IC50 (cells) was 5 nM and the half-life (in vitro; liver microsomes) was 15 min.
Work on `CCn1nnc2c(N3CCOCC3)nc(-c3ccc(NC(=O)Nc4ccncc4)cc3)nc21` yielded an IC50 [1] of 0.63 nM, a solubility [2] of 18 µg/mL (≈ 40.4 µM) and an IC50 [14] of 5 nM. For the same molecule, the IC50 (MDA-MB-361 [3]) was 35 nM, the IC50 (PC-3) was 49 nM and the half-life (in vitro; liver microsomes) was 27 min.
With `CC(C)n1nnc2c(N3CCOCC3)nc(-c3ccc(NC(=O)Nc4ccc(N5CCOCC5)cc4)cc3)nc21` the IC50 [1] was 0.35 nM, the solubility [2] was 1 µg/mL (≈ 1.84 µM) and the IC50 (MDA-MB-361 [3]) was 47 nM. It also gave an IC50 (PC-3) of 110 nM and a half-life (in vitro; liver microsomes) of 25 min.
Work on `CCn1nnc2c(N3CCOCC3)nc(-c3ccc(NC(=O)Nc4ccc(C(=O)NCCCN(C)C)cc4)cc3)nc21` yielded an IC50 [1] of 2.2 nM, a solubility [2] of 100 µg/mL (≈ 175 µM) and a solubility [5] of 100 µg/mL (≈ 175 µM). For the same molecule, the half-life [6] was 30 min, the half-life [7] was 26 min and the IC50 [14] was 2.4 nM. The IC50 (MDA-MB-361 [3]) was 41 nM, the IC50 (PC-3) was 116 nM and the IC50 (cells) was 44 nM. The half-life (in vitro; liver microsomes) was 26 min.
`O=C(Nc1ccc(-c2nc(N3CCOCC3)c3nnn(C4CC4)c3n2)cc1)Nc1cccs1` gave an IC50 [1] of 3.05 nM, an IC50 (MDA-MB-361 [3]) of 73 nM and an IC50 (PC-3) of 149 nM. For the same molecule, the half-life (in vitro; liver microsomes) was 15 min.
`OCc1cccc(-c2nc(N3CCOCC3)c3nnn(C4CCN(Cc5ccccc5)CC4)c3n2)c1` gave an IC50 [1] of 250 nM and an IC50 (PC-3) of 393 nM.
With `CCCCNC(=O)c1ccc(NC(=O)Nc2ccc(-c3nc(N4CCOCC4)c4nnn(CC)c4n3)cc2)cc1` the IC50 [1] was 2.7 nM, the half-life [6] was greater than 30 min and the half-life [7] was 27 min. For the same molecule, the IC50 (MDA-MB-361 [3]) was 68 nM, the IC50 (PC-3) was 96 nM and the IC50 (cells) was 47 nM. It also gave a half-life (in vitro; liver microsomes) of 21 min.
In the case of `CC(C)n1nnc2c(N3CCOCC3)nc(-c3ccc(NC(=O)Nc4ccc(CO)cc4)cc3)nc21`, the IC50 [4] is reported as 24.8 nM, the IC50 [1] is reported as 0.32 nM and the IC50 [32] is reported as 8 nM. For the same molecule, the IC50 [14] was 3.5 nM, the IC50 (MDA-MB-361 [3]) was less than 30 nM and the IC50 (PC-3) was 55 nM.
